Data reported in US9868705B2, “Tetra-aryl cyclobutane inhibitors of androgen receptor action for the treatment of hormone refractory cancer” (The Board of Trustees of the University of Illinois, priority 2013, dated 2018).
Numbering of substitutions follows the chain as printed.

Experiments:
T877A (LNCaP) AR = biological target: T1, T877A (LNCaP) AR (Homo sapiens, UniProt P10275, T878A); assay: MMTV-luciferase transcription assay in CV-1 cells, T877A AR; type: cell-based; conditions: for AR antagonism, potency in words (structure-activity discussion): MMTV transcription assay in CV-1 cells, compared with 1; for MMTV transcription assay in CV-1 cells T877A (IC50 / inhibition) / IC50: T877A AR; for MMTV transcription assay in CV-1 cells T877A (IC50 / inhibition): values given as powers of ten without unit, or in words; for IC50: values given in μM, read-out: MMTV transcription assay in CV-1 cells T877A (IC50)
T1 construct: expressed in transfected cells; host or cells: CV-1
T1 sequence (P10275 1-920 T878A): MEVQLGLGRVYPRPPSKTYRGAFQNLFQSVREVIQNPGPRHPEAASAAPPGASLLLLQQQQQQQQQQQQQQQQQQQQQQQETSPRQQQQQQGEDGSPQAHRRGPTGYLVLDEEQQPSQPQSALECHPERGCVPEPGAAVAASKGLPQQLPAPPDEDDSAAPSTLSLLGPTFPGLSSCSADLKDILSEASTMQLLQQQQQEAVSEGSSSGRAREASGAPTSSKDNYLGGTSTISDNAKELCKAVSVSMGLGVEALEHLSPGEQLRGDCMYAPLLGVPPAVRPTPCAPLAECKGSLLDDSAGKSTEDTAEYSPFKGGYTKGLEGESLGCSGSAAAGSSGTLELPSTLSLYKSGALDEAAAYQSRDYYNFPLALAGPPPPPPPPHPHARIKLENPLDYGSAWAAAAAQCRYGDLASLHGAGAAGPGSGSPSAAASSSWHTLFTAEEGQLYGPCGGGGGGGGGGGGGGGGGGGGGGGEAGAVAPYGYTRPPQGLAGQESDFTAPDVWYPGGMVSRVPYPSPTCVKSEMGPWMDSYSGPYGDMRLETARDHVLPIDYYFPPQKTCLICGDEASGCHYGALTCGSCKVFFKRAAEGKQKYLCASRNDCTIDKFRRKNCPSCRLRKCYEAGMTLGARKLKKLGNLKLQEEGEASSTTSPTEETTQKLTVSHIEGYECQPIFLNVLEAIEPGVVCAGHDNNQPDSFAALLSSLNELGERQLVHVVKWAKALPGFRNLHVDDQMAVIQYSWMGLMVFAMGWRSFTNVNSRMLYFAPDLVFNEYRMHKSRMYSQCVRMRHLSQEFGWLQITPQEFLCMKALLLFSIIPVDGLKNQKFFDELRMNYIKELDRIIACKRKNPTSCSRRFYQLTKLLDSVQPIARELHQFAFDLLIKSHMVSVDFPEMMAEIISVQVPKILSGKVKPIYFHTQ
Description: (§1) These compounds were screened using an AR-responsive MMTV transcription assay in CV-1 cells, utilizing both wild type and T877A (LNCaP) AR. […]

wild type AR = biological target: T2, wild type AR (Homo sapiens, UniProt P10275); assay: MMTV-luciferase transcription assay in CV-1 cells, wild type AR; type: cell-based; conditions: wild type AR; for MMTV transcription assay in CV-1 cells WT (IC50 / inhibition): values given as powers of ten without unit, or in words
T2 construct: expressed in transfected cells; host or cells: CV-1
T2 sequence (P10275 1-920): T1 sequence (P10275 1-920 T878A) with A878T
Description: as §1

Clc1cc([C@@H]2[C@H](c3cc(Cl)nc(Cl)n3)[C@@H](c3cccs3)[C@H]2c2cccs2)nc(Cl)n1 [DMP-29]
AR antagonism, potency in words (structure-activity discussion) (T877A (LNCaP) AR): retained parent compound potency
MMTV transcription assay in CV-1 cells T877A (IC50 / inhibition) (T877A (LNCaP) AR): Incomplete inhibition at 10^−5
MMTV transcription assay in CV-1 cells WT (IC50 / inhibition) (wild type AR): Incomplete inhibition at 10^−5 Incomplete inhibition at 10^−5

Cc1cc([C@H]2[C@H](c3ccccc3)[C@H](c3cc(C)nc(Cl)n3)[C@H]2c2ccccc2)nc(Cl)n1 [DPM-30]
AR antagonism, potency in words (structure-activity discussion) (T877A (LNCaP) AR): comparable potency to 1
IC50 (T877A (LNCaP) AR): 2.89 µM
IC50 (wild type AR; values given in μM, read-out: MMTV transcription assay in CV-1 cells WT (IC50)): 17 µM

Clc1cc([C@H]2[C@H](c3ccccc3)[C@H](c3cc(Cl)ncn3)[C@H]2c2ccccc2)ncn1 [DPM-26]
AR antagonism, potency in words (structure-activity discussion) (T877A (LNCaP) AR): decreased potency
IC50 (T877A (LNCaP) AR): 9 µM
MMTV transcription assay in CV-1 cells WT (IC50 / inhibition) (wild type AR): Incomplete inhibition at 10^−5

c1ccc([C@@H]2[C@H](c3ccccc3)[C@@H](c3cnccn3)[C@H]2c2cnccn2)cc1 [DPM-12]
MMTV transcription assay in CV-1 cells T877A (IC50 / inhibition) (T877A (LNCaP) AR): No inhibition
MMTV transcription assay in CV-1 cells WT (IC50 / inhibition) (wild type AR): No inhibition No inhibition

COc1cncc([C@@H]2[C@@H](c3ccccc3)[C@@H](c3ccccc3)[C@@H]2c2cncc(OC)n2)n1 [DPM-16]
AR antagonism, potency in words (structure-activity discussion) (T877A (LNCaP) AR): decreased activity
MMTV transcription assay in CV-1 cells T877A (IC50 / inhibition) (T877A (LNCaP) AR): Slight inhibition at 10^−5
MMTV transcription assay in CV-1 cells WT (IC50 / inhibition) (wild type AR): No inhibition

c1ccc([C@H]2[C@H](c3ccccn3)[C@H](c3ccccc3)[C@H]2c2ccccn2)cc1 [DMP-13]
MMTV transcription assay in CV-1 cells WT (IC50 / inhibition) (wild type AR): No inhibition No inhibition

c1ccc([C@H]2[C@H](c3cnccn3)[C@H](c3ccccc3)[C@@H]2c2cnccn2)cc1 [DPM-11/20]
MMTV transcription assay in CV-1 cells T877A (IC50 / inhibition) (T877A (LNCaP) AR): Mild inhibition at~10^−5
MMTV transcription assay in CV-1 cells WT (IC50 / inhibition) (wild type AR): No inhibition No inhibition

COc1cncc([C@H]2[C@H](c3ccccc3)[C@@H](c3cncc(OC)n3)[C@H]2c2ccccc2)n1 [DPM-17]
AR antagonism, potency in words (structure-activity discussion) (T877A (LNCaP) AR): decreased activity

COc1cc([C@H]2[C@H](c3ccsc3)[C@H](c3cc(OC)nc(OC)n3)[C@H]2c2ccsc2)nc(OC)n1 [DPM-8]
AR antagonism, potency in words (structure-activity discussion) (T877A (LNCaP) AR): retained parent compound potency
MMTV transcription assay in CV-1 cells WT (IC50 / inhibition) (wild type AR): Incomplete inhibition at 10^−5 Incomplete inhibition at 10^−5

COc1cc([C@H]2[C@H](c3ccc(Br)cc3)[C@@H](c3cc(OC)nc(OC)n3)[C@H]2c2ccc(Br)cc2)nc(OC)n1 [DMP-10]
AR antagonism, potency in words (structure-activity discussion) (T877A (LNCaP) AR): inactive
MMTV transcription assay in CV-1 cells T877A (IC50 / inhibition) (T877A (LNCaP) AR): No inhibition
MMTV transcription assay in CV-1 cells WT (IC50 / inhibition) (wild type AR): No inhibition

COc1cncc([C@@H]2[C@@H](c3ccccc3)[C@@H](c3ccccc3)[C@@H]2c2cncc(OC)n2)n1 [DPM-15]
AR antagonism, potency in words (structure-activity discussion) (T877A (LNCaP) AR): decreased activity
MMTV transcription assay in CV-1 cells WT (IC50 / inhibition) (wild type AR): No inhibition

COc1nccc([C@H]2[C@H](c3ccccc3)[C@@H](c3ccnc(OC)n3)[C@H]2c2ccccc2)n1 [DMP-6]
MMTV transcription assay in CV-1 cells T877A (IC50 / inhibition) (T877A (LNCaP) AR): No inhibition No inhibition
MMTV transcription assay in CV-1 cells WT (IC50 / inhibition) (wild type AR): No inhibition No inhibition

Clc1cc([C@H]2[C@H](c3ccc(-c4ccccc4)cc3)[C@H](c3cc(Cl)nc(Cl)n3)[C@H]2c2ccc(-c3ccccc3)cc2)nc(Cl)n1 [DPM-27]
AR antagonism, potency in words (structure-activity discussion) (T877A (LNCaP) AR): inactive
MMTV transcription assay in CV-1 cells T877A (IC50 / inhibition) (T877A (LNCaP) AR): No inhibition
MMTV transcription assay in CV-1 cells WT (IC50 / inhibition) (wild type AR): No inhibition
